Experimental data published in patent US4454291A, “N-(2-Substituted-1-oxoalkyl)-2,3-dihydro-1H-indole-2-carboxylic acid derivatives” (American Home Products Corporation, priority 1982, dated 1984).
Counter-ions that a name gives are not always drawn. Square brackets hold non-standard residues; d marks the D form. Ends that are not written are not given here. pGlu = O=C1CC[C@@H](C(=O)O)N1

Assays:
[1] = tested on: hypertension; settings: cited from earlier work
[2] = target: T1, angiotensin converting enzyme (Oryctolagus cuniculus, UniProt P12822); assay: In vitro assay for angiotensin converting enzyme inhibition utilizing rabbit lung extract (Cushman et al.), hippuryl-L-histidyl-L-leucine substrate; type: biochemical
T1 construct: utilizing the rabbit lung extract; from tissue; host or cells: rabbit lung extract
T1 sequence (P12822 34-1310): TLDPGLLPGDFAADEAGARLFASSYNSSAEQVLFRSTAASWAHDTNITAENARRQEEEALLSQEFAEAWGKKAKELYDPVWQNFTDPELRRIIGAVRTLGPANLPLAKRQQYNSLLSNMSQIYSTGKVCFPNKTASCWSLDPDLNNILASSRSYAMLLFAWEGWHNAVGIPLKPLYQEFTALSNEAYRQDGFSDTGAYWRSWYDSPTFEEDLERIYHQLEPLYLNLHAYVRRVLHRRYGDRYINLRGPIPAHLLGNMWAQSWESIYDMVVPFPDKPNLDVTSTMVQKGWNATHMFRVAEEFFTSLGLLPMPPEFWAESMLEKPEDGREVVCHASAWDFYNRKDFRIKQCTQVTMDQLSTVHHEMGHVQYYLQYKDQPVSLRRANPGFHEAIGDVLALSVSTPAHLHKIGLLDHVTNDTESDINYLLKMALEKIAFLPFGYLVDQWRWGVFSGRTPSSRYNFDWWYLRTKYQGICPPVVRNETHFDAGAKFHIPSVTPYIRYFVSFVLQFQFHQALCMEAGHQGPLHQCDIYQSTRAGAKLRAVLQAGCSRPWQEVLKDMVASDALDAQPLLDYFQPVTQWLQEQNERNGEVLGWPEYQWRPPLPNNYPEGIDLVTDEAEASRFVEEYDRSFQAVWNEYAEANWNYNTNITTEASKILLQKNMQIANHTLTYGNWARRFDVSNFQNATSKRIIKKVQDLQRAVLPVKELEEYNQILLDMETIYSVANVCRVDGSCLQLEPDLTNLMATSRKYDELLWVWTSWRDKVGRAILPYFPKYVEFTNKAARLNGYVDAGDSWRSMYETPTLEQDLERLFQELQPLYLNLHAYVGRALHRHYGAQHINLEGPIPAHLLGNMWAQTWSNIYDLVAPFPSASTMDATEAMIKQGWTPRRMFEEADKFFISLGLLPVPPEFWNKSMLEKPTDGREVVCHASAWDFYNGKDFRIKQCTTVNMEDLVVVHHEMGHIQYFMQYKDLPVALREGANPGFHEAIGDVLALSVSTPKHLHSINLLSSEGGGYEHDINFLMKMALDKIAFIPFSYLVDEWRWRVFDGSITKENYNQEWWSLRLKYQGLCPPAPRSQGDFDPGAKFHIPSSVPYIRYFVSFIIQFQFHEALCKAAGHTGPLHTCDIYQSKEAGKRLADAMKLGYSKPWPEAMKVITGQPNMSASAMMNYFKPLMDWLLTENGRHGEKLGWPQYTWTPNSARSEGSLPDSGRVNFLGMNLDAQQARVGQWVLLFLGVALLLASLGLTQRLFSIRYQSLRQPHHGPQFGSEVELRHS
Protocol: The angiotensin converting enzyme (ACE) inhibitory property of the compounds is measured in vitro and in vivo. The in vitro assay utilizes rabbit lung extract and a specific tripeptide substrate, hippuryl-L-histidyl-L-leucine being preferred, and follows the method of Cushman et al., Biochem. Pharmacol., 20, 1637-1648 (1971).
In the in vitro assay for angiotensin converting enzyme inhibition utilizing the rabbit lung extract according to the procedure of Cushman et al., Biochem. Pharmacol., 20, 1637-1648 (1971), the following results were obtained: […]

[3] = tested on: vasopressor action of Angiotensin I; assay: In vivo ACE inhibitory activity in the conscious normotensive rat: angiotensin I vasopressor response (Rubin et al.); design: species or system rat (Sprague-Dawley, male; settings: oral, 1 mg/kg, 2 hours after administration
Protocol: The in vivo ACE inhibitory activity of the compounds is measured according to the procedure described in Rubin et al., J. Pharmacol. Exp. Ther., 204, 271-280 (1978), which utilizes the conscious normotensive tat as a subject. In this procedure, the jugular vein and carotid artery cannulae are placed in an etheranesthetized, normotensive, male, Sprague-Dawley rat for injection or oral dosage of compounds and direct recording of systemic arterial pressure, respectively. The blood pressure responses to I. V. injections of angiotensin I (500 ng/kg.), angiotensin II (100 ng/kg.) and bradykinin (10 μg/kg.) are recorded and compared with identical doses administered at various time intervals after oral dosing of a prospective angiotensin converting enzyme inhibitor. An angiotensin converting enzyme inhibitor would not be expected necessarily to lower arterial pressure in the normotensive rat, but would be expected to block angiotensin I pressor responses without grossly altering angiotensin II responses. Additionally,the vasodepressor response to bradykinin would be expected to be augmented since angiotensin converting enzyme is known to inactivate bradykinin normally.

[4] = tested on: spontaneously hypertensive rat; assay: Anti-hypertensive effect in the spontaneously hypertensive rat (systolic pressure, indirect caudal plethysmograph); type: in vivo, male); settings: oral, 4 subjects
Protocol: The anti-hypertensive effect of the compounds of the invention is measured in the spontaneously hypertensive rat. In this procedure systolic pressure of male spontaneously hypertensive rats is measured by an indirect technique using the Decker Caudal Plethysmograph or other appropriate sensor. Groups usually consist of 4 or more rats. Drugs are usually administered orally. Pressures are usually read prior to drug administration and at 1.5, 4 and 24 hours thereafter. This schedule may be altered depending upon the behavior of the drug.
This procedure measures the hypotensive effect of the subject compounds in a hypertensive subject using a single dose and measuring the response over a 24 hour period. When administered orally according to this procedure, compounds of the invention produced a significant decrease in blood pressures in doses of 1-50 mg/kg. When used to treat hypertension in warm-blooded animals doses of less than 15 mg/kg./day would be utilized, and preferably doses of less than 5 mg/kg./day. Such effective treatment doses would generally be administered in long-term antihypertensive therapy.

[5] = tested on: angiotensin converting enzyme; settings: cited from earlier work
[6] = tested on: hypertension; settings: humans with certain forms of hypertension; cited from earlier work

Molecule	oral activity as an anti-hypertensive agent [1]	IC50 [2] [nM]	potency as inhibitors of angiotensin converting enzyme [5]	other results
C[C@H](CS)C(=O)N1CCCC1C(=O)O (stereo in doubt) [D-3-mercapto-2methylpropanoyl-L-proline]	effective when administered orally	–	–	effectiveness among the proline derivatives ([1]; in vivo): most effective
C[C@H](N)C(=O)N1c2ccccc2C[C@H]1C(=O)O [Example 54, (S)-1-[(S)-2-Amino-Oxopropyl]-2,3-Dihydro-1H-Indole-2-Carboxylic Acid]	–	3100	–	–
CCOC(=O)[C@H](CCc1ccccc1)N[C@@H](C)C(=O)N1c2ccccc2C[C@H]1C(=O)O.O=C(O)/C=C\C(=O)O [Example 55, (-)-(S)-1-[(2S)-2-[[(1S)-1-(Ethoxycarbonyl)-3-Phenylpropyl]Amino]-1-Oxopropyl]-2,3-Dihydro-1H-Indole-2-Carboxylic Acid, Maleate]	–	118	–	inhibition of the vasopressor action of Angiotensin I [3]: 46%; Reduction of Systolic BP ([4]; 2.5 mg/kg): -13 mm. Hg.; Reduction of Systolic BP ([4]; 5.0 mg/kg): -23 mm. Hg.; Reduction of Systolic BP ([4]; 10.0 mg/kg): -33 mm. Hg.
CCOC(=O)[C@@H](CCc1ccccc1)N[C@@H](C)C(=O)N1c2ccccc2C[C@H]1C(=O)O [Example 56, (-)-(S)-1-[(2S)-2-[[(1R)-1-(Ethoxycarbonyl)-3-Phenylpropyl]Amino]-1-Oxopropyl]-2,3-Dihydro-1H-Indole-2-Carboxylic Acid, Maleate]	–	900	–	–
Pyr-Lys-Trp-Ala-Pro ([pGlu]KWAP) [BPP5a]	–	–	most potent	–
Pyr-Trp-Pro-Arg-Pro-Gln-Ile-Pro-Pro (WPRPQIPP; N-terminal pyroglutamate; printed: Trp-Pro-Arg-Pro-Gln-Ile-Pro-Pro) [BPP9a]	not orally active	–	most potent	anti-hypertensive effect in clinical studies [6]: effective anti-hypertensive agent
